Measured values as given in US6054462A, “Intranasal antimigraine compositions” (Janssen Pharmaceutica, N.V., priority 1994, dated 2000).

Experiments:
5-HT1 -like receptors = conditions: in vitro and in vivo animal experiments; cited from earlier work
clinical = assay: clinical; parameters: species or system healthy volunteers; conditions: human, in vivo
Method: A double-blind, randomized, cross-over trial in healthy volunteers during four treatment days were set up. All volunteers (n=8) participated in the four sessions of the trial, in which the above formulation was tested. On each treatment day volunteers received a single intranasal administration of 1 mg of a formulation of (-)-(R)-N-[(3,4-dihydro-2H-1-benzopyran-2-yl)methyl]-N'-(1,4,5,6-tetrahydro-2-pyrimidinyl)-1,3-propanediamine dihydrochloride as described in example 1. Unidose nasal sprayers at a concentration of 10 mg/ml, which provided a volume of 100 μl per spray were used. The composition was administered to the volunteers as a single spray in one nostril. Blood was sampled over 24 hours for pharmacokinetic analysis. Venous 10 ml blood samples for drug analysis were taken at 0, 5, 10, 20, 30, 60, 90, 120, 240 and 360 minutes and 24 hours after drug administration. The blood samples were transferred to heparinized tubes and centrifuged within 30 minutes after collection. Separated plasma was transferred to polystyrene tubes adequately labelled with the trial number, subject number and initials, time and date of sampling.
Concentrations of (-)-(R)-N-[(3,4-dihydro-2H-1-benzopyran -2-yl)methyl]-N'-(1,4,5,6-tetrahydro-2-pyrimidinyl)-1,3-propanediamine dihydrochloride were determined by radio immunoassay. […]

Row | Structure (SMILES) | arterial vasoconstrictor response arises through activation of 5-HT1 -like receptors (5-HT1 -like receptors) | vasoconstrictory properties (5-HT1 -like receptors) | bioavailability at 24 h (clinical) [%]
1 | c1ccc2c(c1)CCC(CNCCCNC1=NCCCN1)O2 (stereo not drawn) [N-[(3,4-dihydro-2H-1-benzopyran-2-yl)methyl]-N'-(1,4,5,6-tetrahydro-2-pyrimidinyl)-1,3-propanediamine] | agonistic activation of 5-HT1 -like receptors | highly vasoconstrictory properties | 
2 | Cl.Cl.c1ccc2c(c1)CC[C@H](CNCCCNC1=NCCCN1)O2 [active ingredient, (-)-(R)-N-[(3,4-dihydro-2H-1-benzopyran-2-yl)methyl]-N'-(1,4,5,6-tetrahydro-2-pyrimidinyl)-1,3-propanediamine dihydrochloride] |  |  | ~35
